Data taken from US9617311B2, “Use of PEDF-derived polypeptides for promoting stem cells proliferation and wound healing” (Mackay Memorial Hospital, priority 2011, dated 2017).

Columns and labels:
corneal wound = test: Corneal wound healing in mice, fluorescein staining; type: in vivo, C57BL/6 mice; settings: for corneal re-epithelialization after 48 hours: 20 μl eye ointment with 50 μM peptide once a day, 2 mm wound; for residual epithelial defect, percentage of the original wound: 50 μM peptide eye ointment once a day
Protocol: (§1) The experiments were performed using eight-week-old female C57BL/6 mice, and the procedures were approved by the Mackay Memorial Hospital Review Board for animal investigation. Animals were anesthetized by an intraperitoneal injection of a mixture of zoletil (6 mg/kg) and xylazine (3 mg/kg). One filter paper (0.9 mm diameter) soaked with 20% ethanol was placed on the central cornea of right eye for one minute and then irrigated extensively with PBS. Subsequently, mechanical epithelial scrape was performed using a punch under a dissection microscope to create a circular injury (2 mm diameter) at the entire corneal region of the mouse eye without encroaching the corneal stroma, limbus or conjunctiva.
(§2) Each synthetic peptide (the 39-mer, 34-mer, 29-mer, 25-mer, 20-mer, 18-mer, Mo 29-mer or Mo 20-mer) was reconstituted in DMSO as stock (5 mM) and mixed with TOBREX® eye ointment (Alcon; containing 0.3% Tobramycin and 0.5% Chlorobutanol) to a concentration 50 μM. In each of the treatment group (n=6-10), the right eye was treated with 20 μl eye ointment containing the synthetic peptide once a day after the scrape injury. In the control group (n=20), right eye was treated with 20 μl of eye ointment mixed with vehicle DMSO. Wound size was determined by staining with topical fluorescein (Fluor-I-Strip, Ayerst Laboratories, Philadelphia, Pa.) and photographed with a digital camera. The area of defect was quantified from the photographs using a computer-assisted image analyzer (Adobe Photoshop CS3 10.0) and was calculated as the percentage of residual epithelial defect at each time point/initial wound area.
To investigate the effect of PEDF-derived short peptides on corneal wound healing in mice, corneal wound was created by a circular punch (2 mm diameter), then control eye-ointment or eye-ointment containing the short synthetic PEDF peptide(s) of this invention was applied to the wounded eye, and wound healing was subsequently evaluated by fluorescein staining. No significant differences in the size of the initial abrasion were noted between synthetic PEDF peptide-treated and control mice.

LSCs in the limbus = test: Limbal epithelium thickness and ΔNp63α-positive LSC level on day 5 post corneal wounding; type: in vivo, C57BL/6 mice; settings: day 5 post-wounding; for thickness of the limbus / limbal epithelia: compared with normal unwounded eye; for levels of ΔNp63α-positive LSCs in limbus: control ointment 38.9±2.8%, normal unwounded eye 74.8±6.3%
From the text: FIG. 4A provides histologic photographs (left panels, Hematoxylin and Eosin (H&E) staining, magnification, ×400), immunofluorescence microscopy photographs (middle panels, magnification, ×1000), and merged photographs (right panels); together, they illustrate layers of stratified limbal epithelium of mice at day 5 post-corneal injury according to the previous example of the present disclosure. […] Normal indicates uninjured eye. Cornea of normal eye that has no ΔNp63α-positive cell acted as ΔNp63α negative immunostaining control. FIG. 4B is a histogram illustrating levels of ΔNp63α-positive cells at limbus. Results of immunofluorescence were evaluated from 6 sections per mouse cornea, and 6 mice at each treatment. A labeling index was computed as the number of labeled cells divided by the total number of cells observed by a Hoechst 33258 fluorescent nuclear stain. P<0.005 versus control eye.
(§3) De-paraffinized tissue sections or 4% paraformaldehyde-fixed LSCs were blocked with 10% goat serum and 5% BSA in PBST (PBS containing 0.1% Tween-20) for 1 hour. Staining was done using primary antibodies against ΔNp63α (1:150 dilution), BrdU (1:250 dilution), and keratin-3 (1:250 dilution) at 37° C. for 2 hours, followed by incubation with the appropriate rhodamine- or FITC-conjugated donkey IgG (1:500 dilution) for 1 hour at RT. Nuclei were identified by counterstaining with Hoechst 33258 for 7 minutes. Images were captured using a Zeiss epifluorescence microscope with a CCD camera and photographs were taken by using the Axiovert software.
as §1, §2
On average, the levels of ΔNp63α-positive LSCs in limbus of normal unwounded eye is 74.8±6.3%; whereas the levels of ΔNp63α-positive LSCs in corneal wounded eyes treated with control, 29-mer, 20-mer, 18-mer and Mo 20-mer ointment were 38.9±2.8%, 77.0±4.1%, 73.1±8.6%, 39.4±2.6%, and 76.3±6.2% respectively (FIG. 4B). Taken together, 29-mer or 20-mer treatment can activate LSCs in vivo coincidently with more prominent corneal re-epithelialization than corneal regeneration by native progress.

[1] = tested on: limbal epithelial stem cells (LSCs); test: In vitro LSC proliferation, BrdU pulse-labeling with ΔNp63α immunostaining; type: cell-based, New Zealand white rabbits; settings: BrdU 2 hours; for percentage of BrdU and ΔNp63α-double positive cells per total ΔNp63α-positive cells: 25 nM peptide or 4.5 nM PEDF in medium, control medium 3.0±0.5%, mean±SEM
From the text: LSCs were isolated from six-month-old New Zealand white rabbits and used for cell-suspension culture in accordance with the method previously described by Cheng et al. (The growth-promoting effect of KGF on limbal epithelial cells is mediated by upregulation of DeltaNp63alpha through the p38 pathway. J Cell Sci 2009; 122 (Pt 24): 4473-4480) and Wang et al. (Importin 13 serves as a potential marker for corneal epithelial progenitor cells. Stem Cells 2009; 27: 2516-2526) with a slight modification. Rabbit limbal tissues were washed in PBS containing 100 U/ml penicillin and 50 μg/ml gentamicin. After carefully removing the iris, and excessive sclera, the limbal rings were exposed to dispase II (1.2 IU/ml in Hanks' balanced salt solution free of Mg^2+ and Ca^2+) at 4° C. for 16 hours. The loosened epithelial sheets were removed with a cell scraper and separated into single cells by enzymatic digestion (0.05% trypsin, and 0.01% EDTA) for 15 min at 37° C. with gentle shaking and transferred to a stop medium (9 ml of HEPES-buffered DMEM containing 10% FBS). Cells were then collected by centrifugation (400×g for 5 min).
About 1×10^5 cells were seeded on each wells of a 6-well plate and incubated in a DMEM/Ham's F-12 basal medium (10 mM HEPES, 5 ng/ml human EGF, 1% SITE liquid medium, antibiotic-antimicotic solutions, 0.5% DMSO and 0.5 μg/ml hydrocortisone) supplemented with 10% FBS for 2 days, and then shifted to a basal medium or basal medium containing 4.5 nM PEDF, 25 nM 39-mer, 25 nM 34-mer, 25 nM 29-mer, 25 nM 25-mer, 25 nM 20-mer, 25 nM 18-mer, 25 nM Mo 29-mer or 25-nM Mo 20-mer. The cells were continued cultivated at 37° C. under 5% CO2 for another 3 days until they reached confluence (passage 0). LSCs were co-cultured with MMC-treated NIH-3T3 fibroblast feeder cells located within trans-well (0.4 μm pore, BD Biosciences, Bedford, Mass.). For passage purpose, near-confluent cells were harvested again by enzymatic treatment (i.e., 0.25% trypsin), and then 1×10^5 subcultured cells were further cultured in the respective medium, and proliferative capacity of cells was compared every 4 days after continuously culture-subculture (passage).
as §3
2×10^5 limbal cells (the 1st passage) were seeded at a slide coated with FNC COATING MIX® solution (Athena Enzyme Systems, Baltimore, Md.) and incubated with a culture medium for one day. BrdU (final, 10 μM) was added to the culture for 2 hours. After being fixed with 4% paraformaldehyde, cells were exposed to cold methanol for 2 minutes, and then treated with 1 N HCl at RT for 1 hour before performing immunofluorescence. For animal study, BrdU was reconstituted in DMSO as stock (80 mM). 10 μl of BrdU mixed with 90 μl of PBS was intraperitoneally injected into mouse 3 hours prior to euthanasia. DNA synthesis was assessed by BrdU labeling with anti-BrdU antibodies.

EQRTESIIHRALYYDLIS [18-mer]
corneal re-epithelialization after 48 hours (corneal wound): incompletely healed wounds | thickness of the limbus / limbal epithelia (LSCs in the limbus): thinner | levels of ΔNp63α-positive LSCs in limbus (LSCs in the limbus): 39.4±2.6% | enhanced LSC proliferation versus control medium ([1]; 25 nM peptide in medium): enhanced proliferation was not observed

SLGAEHRTESVIHRALYYDL [Mo 20-mer, synthetic peptide derived from mouse PEDF]
corneal re-epithelialization after 48 hours (corneal wound): complete corneal re-epithelialization | residual epithelial defect, percentage of the original wound (corneal wound; 24 hours, control 84.9±5.1%): 43.9±7.6% | residual epithelial defect, percentage of the original wound (corneal wound; 48 hours, control 39.5±3.1%): 6.2±3.5% | thickness of the limbus / limbal epithelia (LSCs in the limbus): returned to full-thickness of stratified layers | levels of ΔNp63α-positive LSCs in limbus (LSCs in the limbus): 76.3±6.2% | percentage of BrdU and ΔNp63α-double positive cells per total ΔNp63α-positive cells [1]: 26.3±2.2%

SLGAEHRTESVIHRALYYDLITNPDIHST [Mo 29-mer, synthetic peptide derived from mouse PEDF]
corneal re-epithelialization after 48 hours (corneal wound): complete corneal re-epithelialization | residual epithelial defect, percentage of the original wound (corneal wound; 24 hours, control 84.9±5.1%): 33.8±5.2% | residual epithelial defect, percentage of the original wound (corneal wound; 48 hours, control 39.5±3.1%): 4.6±2.3% | percentage of BrdU and ΔNp63α-double positive cells per total ΔNp63α-positive cells [1]: 27.1±1.8%

SLGAEQRTESIIHRALYYDL [20-mer, synthetic peptide identical to residues 11-30 of the 39-mer]
corneal re-epithelialization after 48 hours (corneal wound): complete corneal re-epithelialization | residual epithelial defect, percentage of the original wound (corneal wound; 24 hours, control 84.9±5.1%): 42.2±4.3% | residual epithelial defect, percentage of the original wound (corneal wound; 48 hours, control 39.5±3.1%): 5.0±3.7% | thickness of the limbus / limbal epithelia (LSCs in the limbus): returned to full-thickness of stratified layers | levels of ΔNp63α-positive LSCs in limbus (LSCs in the limbus): 73.1±8.6% | percentage of BrdU and ΔNp63α-double positive cells per total ΔNp63α-positive cells [1]: 31.8±1.7%

SLGAEQRTESIIHRALYYDLISSPDIHGT [29-mer, short synthetic PEDF peptide derived from the 39-mer]
corneal re-epithelialization after 48 hours (corneal wound): complete corneal re-epithelialization | residual epithelial defect, percentage of the original wound (corneal wound; 24 hours, control 84.9±5.1%): 36.5±6.4% | residual epithelial defect, percentage of the original wound (corneal wound; 48 hours, control 39.5±3.1%): 3.7±2.9% | thickness of the limbus / limbal epithelia (LSCs in the limbus): returned to full-thickness of stratified layers | levels of ΔNp63α-positive LSCs in limbus (LSCs in the limbus): 77.0±4.1% | percentage of BrdU and ΔNp63α-double positive cells per total ΔNp63α-positive cells [1]: 33.9±2.6%
